Test results as given in PMC7377474, “Preclinical characterization of CPL302-253, a selective inhibitor of PI3Kδ, as the candidate for the inhalatory treatment and prevention of Asthma” (PLoS ONE, 2020).

Assays:
Test in all cases: SafetyScan44
Assay type in all cases: cell-based
ADRB1 = target: T1, ADRB1 (Homo sapiens, UniProt P08588); conditions: 10 μM
T1 construct: purchased DiscoverX (Eurofins) SafetyScan44
Method: (§1) SafetyScan44 assay was performed by DiscoverX according to service provider’s protocol.

MAOA = target: T2, MAOA (Homo sapiens, UniProt P21397); conditions: 10 μM; Inhibitor mode
T2 construct: purchased DiscoverX (Eurofins) SafetyScan44
Method: as §1

SERT = target: T3, SERT (Homo sapiens, UniProt P31645); conditions: 10 μM; Blocker mode
T3 construct: purchased DiscoverX (Eurofins) SafetyScan44
Method: as §1

HRH2 = target: T4, HRH2 (Homo sapiens, UniProt P25021); conditions: 10 μM
T4 construct: purchased DiscoverX (Eurofins) SafetyScan44
Method: as §1

ROCK1 = target: T5, ROCK1 (Homo sapiens, UniProt Q13464); conditions: 10 μM; Inhibitor mode
T5 construct: purchased DiscoverX (Eurofins) SafetyScan44
Method: as §1

HTR3A = target: T6, HTR3A (Homo sapiens, UniProt P46098); conditions: 10 μM
T6 construct: purchased DiscoverX (Eurofins) SafetyScan44
Method: as §1

ADRA1A = target: T7, ADRA1A (Homo sapiens, UniProt P35348); conditions: 10 μM
T7 construct: purchased DiscoverX (Eurofins) SafetyScan44
Method: as §1

EDNRA = target: T8, EDNRA (Homo sapiens, UniProt P25101); conditions: 10 μM
T8 construct: purchased DiscoverX (Eurofins) SafetyScan44
Method: as §1

ADRA2A = target: T9, ADRA2A (Homo sapiens, UniProt P08913); conditions: 10 μM
T9 construct: purchased DiscoverX (Eurofins) SafetyScan44
Method: as §1

OPRM1 = target: T10, OPRM1 (Homo sapiens, UniProt P35372); conditions: 10 μM
T10 construct: purchased DiscoverX (Eurofins) SafetyScan44
Method: as §1

INSR = target: T11, INSR (Homo sapiens, UniProt P06213); conditions: 10 μM; Inhibitor mode
T11 construct: purchased DiscoverX (Eurofins) SafetyScan44
Method: as §1

CHRM2 = target: T12, CHRM2 (Homo sapiens, UniProt P08172); conditions: 10 μM
T12 construct: purchased DiscoverX (Eurofins) SafetyScan44
Method: as §1

CNR1 = target: T13, CNR1 (Homo sapiens, UniProt P21554); conditions: 10 μM
T13 construct: purchased DiscoverX (Eurofins) SafetyScan44
Method: as §1

OPRK1 = target: T14, OPRK1 (Homo sapiens, UniProt P41145); conditions: 10 μM
T14 construct: purchased DiscoverX (Eurofins) SafetyScan44
Method: as §1

PDE4D2 = target: T15, PDE4D2 (Homo sapiens, UniProt Q08499); conditions: 10 μM; Inhibitor mode
T15 construct: purchased DiscoverX (Eurofins) SafetyScan44
Method: as §1

HTR1B = target: T16, HTR1B (Homo sapiens, UniProt P28222); conditions: 10 μM
T16 construct: purchased DiscoverX (Eurofins) SafetyScan44
Method: as §1

HTR1A = target: T17, HTR1A (Homo sapiens, UniProt P08908); conditions: 10 μM
T17 construct: purchased DiscoverX (Eurofins) SafetyScan44
Method: as §1

OPRD1 = target: T18, OPRD1 (Homo sapiens, UniProt P41143); conditions: 10 μM
T18 construct: purchased DiscoverX (Eurofins) SafetyScan44
Method: as §1

LCK = target: T19, LCK (Homo sapiens, UniProt P06239); conditions: 10 μM; Inhibitor mode
T19 construct: purchased DiscoverX (Eurofins) SafetyScan44
Method: as §1

GABAA = conditions: 10 μM
Method: as §1

DRD1 = target: T20, DRD1 (Homo sapiens, UniProt P21728); conditions: 10 μM
T20 construct: purchased DiscoverX (Eurofins) SafetyScan44
Method: as §1

ADORA2A = target: T21, ADORA2A (Homo sapiens, UniProt P29274); conditions: 10 μM
T21 construct: purchased DiscoverX (Eurofins) SafetyScan44
Method: as §1

CCKAR = target: T22, CCKAR (Homo sapiens, UniProt P32238); conditions: 10 μM
T22 construct: purchased DiscoverX (Eurofins) SafetyScan44
Method: as §1

COX1 = target: T23, COX1 (Homo sapiens, UniProt P23219); conditions: 10 μM; Inhibitor mode
T23 construct: purchased DiscoverX (Eurofins) SafetyScan44
Method: as §1

NAV1.5 = target: T24, NAV1.5 (Homo sapiens, UniProt Q14524); conditions: 10 μM; Blocker mode
T24 construct: purchased DiscoverX (Eurofins) SafetyScan44
Method: as §1

NET = target: T25, NET (Homo sapiens, UniProt P23975); conditions: 10 μM; Blocker mode
T25 construct: purchased DiscoverX (Eurofins) SafetyScan44
Method: as §1

CNR2 = target: T26, CNR2 (Homo sapiens, UniProt P34972); conditions: 10 μM
T26 construct: purchased DiscoverX (Eurofins) SafetyScan44
Method: as §1

ADRB2 = target: T27, ADRB2 (Homo sapiens, UniProt P07550); conditions: 10 μM
T27 construct: purchased DiscoverX (Eurofins) SafetyScan44
Method: as §1

COX2 = target: T28, COX2 (Homo sapiens, UniProt P35354); conditions: 10 μM; Inhibitor mode
T28 construct: purchased DiscoverX (Eurofins) SafetyScan44
Method: as §1

HTR2B = target: T29, HTR2B (Homo sapiens, UniProt P41595); conditions: 10 μM
T29 construct: purchased DiscoverX (Eurofins) SafetyScan44
Method: as §1

AVPR1A = target: T30, AVPR1A (Homo sapiens, UniProt P37288); conditions: 10 μM
T30 construct: purchased DiscoverX (Eurofins) SafetyScan44
Method: as §1

AChE = target: T31, AChE (Homo sapiens, UniProt P22303); conditions: 10 μM; Inhibitor mode
T31 construct: purchased DiscoverX (Eurofins) SafetyScan44
Method: as §1

AR = target: T32, AR (Homo sapiens, UniProt P10275); conditions: 10 μM
T32 construct: purchased DiscoverX (Eurofins) SafetyScan44
Method: as §1

CAV1.2 = target: T33, CAV1.2 (Homo sapiens, UniProt Q13936); conditions: 10 μM; Blocker mode
T33 construct: purchased DiscoverX (Eurofins) SafetyScan44
Method: as §1

CHRM1 = target: T34, CHRM1 (Homo sapiens, UniProt P11229); conditions: 10 μM
T34 construct: purchased DiscoverX (Eurofins) SafetyScan44
Method: as §1

CHRM3 = target: T35, CHRM3 (Homo sapiens, UniProt P20309); conditions: 10 μM
T35 construct: purchased DiscoverX (Eurofins) SafetyScan44
Method: as §1

HTR2A = target: T36, HTR2A (Homo sapiens, UniProt P28223); conditions: 10 μM
T36 construct: purchased DiscoverX (Eurofins) SafetyScan44
Method: as §1

PDE3A = target: T37, PDE3A (Homo sapiens, UniProt Q14432); conditions: 10 μM; Inhibitor mode
T37 construct: purchased DiscoverX (Eurofins) SafetyScan44
Method: as §1

T30 sequence (P37288 whole entry): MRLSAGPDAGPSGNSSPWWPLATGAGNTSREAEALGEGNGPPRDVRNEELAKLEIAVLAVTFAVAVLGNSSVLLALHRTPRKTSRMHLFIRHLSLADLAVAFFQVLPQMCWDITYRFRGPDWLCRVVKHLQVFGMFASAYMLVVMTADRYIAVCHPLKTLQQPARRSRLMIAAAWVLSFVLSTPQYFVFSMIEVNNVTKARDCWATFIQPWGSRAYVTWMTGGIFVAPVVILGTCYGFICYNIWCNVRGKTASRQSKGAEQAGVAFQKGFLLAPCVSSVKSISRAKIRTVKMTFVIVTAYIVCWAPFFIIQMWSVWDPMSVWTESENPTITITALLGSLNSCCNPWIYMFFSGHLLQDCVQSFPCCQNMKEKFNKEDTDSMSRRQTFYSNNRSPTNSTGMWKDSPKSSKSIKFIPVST
T1 sequence (P08588 whole entry): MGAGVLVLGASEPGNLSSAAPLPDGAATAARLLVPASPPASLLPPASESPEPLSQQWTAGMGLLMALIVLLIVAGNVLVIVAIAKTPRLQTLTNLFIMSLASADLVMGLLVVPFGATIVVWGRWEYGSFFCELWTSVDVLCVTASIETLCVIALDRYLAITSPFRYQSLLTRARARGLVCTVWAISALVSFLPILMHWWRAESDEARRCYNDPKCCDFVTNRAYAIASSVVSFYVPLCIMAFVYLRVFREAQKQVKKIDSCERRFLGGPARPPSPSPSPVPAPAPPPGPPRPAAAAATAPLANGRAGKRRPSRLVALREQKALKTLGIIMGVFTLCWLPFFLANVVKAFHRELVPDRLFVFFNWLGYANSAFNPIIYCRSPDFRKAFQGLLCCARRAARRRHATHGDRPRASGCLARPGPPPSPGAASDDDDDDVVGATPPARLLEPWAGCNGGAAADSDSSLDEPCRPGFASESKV
T34 sequence (P11229 whole entry): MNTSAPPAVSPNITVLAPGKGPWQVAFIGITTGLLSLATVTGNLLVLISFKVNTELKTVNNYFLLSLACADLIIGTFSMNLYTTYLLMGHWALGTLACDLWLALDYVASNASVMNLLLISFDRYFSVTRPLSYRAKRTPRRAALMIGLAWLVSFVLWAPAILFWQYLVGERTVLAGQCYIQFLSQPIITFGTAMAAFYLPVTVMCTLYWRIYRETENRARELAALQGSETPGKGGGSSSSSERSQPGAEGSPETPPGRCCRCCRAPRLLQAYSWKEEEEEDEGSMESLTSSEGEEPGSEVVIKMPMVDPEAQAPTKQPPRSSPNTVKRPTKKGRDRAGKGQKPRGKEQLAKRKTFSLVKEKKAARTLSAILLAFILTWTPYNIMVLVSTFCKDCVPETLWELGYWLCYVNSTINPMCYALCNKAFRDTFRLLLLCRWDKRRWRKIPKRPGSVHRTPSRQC
T13 sequence (P21554 whole entry): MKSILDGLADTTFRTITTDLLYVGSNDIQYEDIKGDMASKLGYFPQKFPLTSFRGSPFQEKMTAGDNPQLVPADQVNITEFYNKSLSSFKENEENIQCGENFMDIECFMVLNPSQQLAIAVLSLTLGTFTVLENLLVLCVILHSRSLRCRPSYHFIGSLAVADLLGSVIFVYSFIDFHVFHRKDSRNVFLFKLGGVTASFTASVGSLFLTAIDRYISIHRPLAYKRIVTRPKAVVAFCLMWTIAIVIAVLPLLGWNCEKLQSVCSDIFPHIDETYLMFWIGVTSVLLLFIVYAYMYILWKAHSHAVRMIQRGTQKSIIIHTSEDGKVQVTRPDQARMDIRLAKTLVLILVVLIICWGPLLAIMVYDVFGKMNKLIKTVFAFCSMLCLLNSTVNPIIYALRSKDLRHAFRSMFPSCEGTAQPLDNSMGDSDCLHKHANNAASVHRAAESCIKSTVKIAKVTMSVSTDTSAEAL
T6 sequence (P46098 24-478): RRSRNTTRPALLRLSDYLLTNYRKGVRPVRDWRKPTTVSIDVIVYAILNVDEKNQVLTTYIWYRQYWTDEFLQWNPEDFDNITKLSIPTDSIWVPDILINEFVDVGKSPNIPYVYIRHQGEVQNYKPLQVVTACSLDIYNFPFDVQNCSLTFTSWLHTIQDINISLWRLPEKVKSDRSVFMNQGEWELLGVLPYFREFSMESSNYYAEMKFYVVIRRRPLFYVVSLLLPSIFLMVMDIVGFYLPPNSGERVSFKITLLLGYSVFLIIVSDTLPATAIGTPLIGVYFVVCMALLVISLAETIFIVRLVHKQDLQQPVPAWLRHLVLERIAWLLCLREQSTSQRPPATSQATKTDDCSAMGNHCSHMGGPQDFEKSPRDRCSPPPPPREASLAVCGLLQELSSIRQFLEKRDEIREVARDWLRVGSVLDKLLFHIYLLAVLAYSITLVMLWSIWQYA
T36 sequence (P28223 whole entry): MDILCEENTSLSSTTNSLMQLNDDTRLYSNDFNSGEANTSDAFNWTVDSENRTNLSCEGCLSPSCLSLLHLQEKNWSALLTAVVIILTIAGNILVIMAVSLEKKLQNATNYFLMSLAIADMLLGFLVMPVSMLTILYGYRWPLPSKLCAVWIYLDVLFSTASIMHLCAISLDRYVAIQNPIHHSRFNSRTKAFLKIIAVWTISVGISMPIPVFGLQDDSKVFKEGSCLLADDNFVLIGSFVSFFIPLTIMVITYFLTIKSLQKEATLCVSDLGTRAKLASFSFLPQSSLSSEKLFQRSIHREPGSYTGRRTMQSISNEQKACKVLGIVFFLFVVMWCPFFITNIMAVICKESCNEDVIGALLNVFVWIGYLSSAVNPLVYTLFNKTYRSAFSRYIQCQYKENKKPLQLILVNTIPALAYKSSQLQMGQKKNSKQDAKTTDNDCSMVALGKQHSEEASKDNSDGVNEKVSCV
T4 sequence (P25021 whole entry): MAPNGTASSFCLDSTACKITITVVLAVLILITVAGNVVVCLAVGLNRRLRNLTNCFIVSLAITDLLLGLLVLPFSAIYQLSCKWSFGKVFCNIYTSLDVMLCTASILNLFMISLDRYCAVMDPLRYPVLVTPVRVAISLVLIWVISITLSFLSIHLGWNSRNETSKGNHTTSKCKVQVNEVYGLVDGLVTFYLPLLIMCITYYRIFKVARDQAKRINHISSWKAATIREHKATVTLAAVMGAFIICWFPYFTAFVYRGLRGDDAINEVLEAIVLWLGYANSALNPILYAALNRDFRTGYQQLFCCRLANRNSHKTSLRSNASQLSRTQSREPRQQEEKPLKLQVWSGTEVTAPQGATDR
T22 sequence (P32238 whole entry): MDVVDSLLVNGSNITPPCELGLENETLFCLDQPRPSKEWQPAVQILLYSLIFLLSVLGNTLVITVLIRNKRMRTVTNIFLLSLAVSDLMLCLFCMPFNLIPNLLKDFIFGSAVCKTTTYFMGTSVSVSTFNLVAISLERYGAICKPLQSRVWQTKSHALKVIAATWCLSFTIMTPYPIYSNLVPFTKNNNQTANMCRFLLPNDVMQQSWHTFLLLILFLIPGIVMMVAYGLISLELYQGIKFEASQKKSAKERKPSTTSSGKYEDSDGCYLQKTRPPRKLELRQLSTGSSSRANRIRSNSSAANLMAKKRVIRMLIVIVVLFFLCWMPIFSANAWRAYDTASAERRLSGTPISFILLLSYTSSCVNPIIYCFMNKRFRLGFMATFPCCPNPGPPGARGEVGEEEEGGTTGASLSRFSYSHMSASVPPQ
T20 sequence (P21728 whole entry): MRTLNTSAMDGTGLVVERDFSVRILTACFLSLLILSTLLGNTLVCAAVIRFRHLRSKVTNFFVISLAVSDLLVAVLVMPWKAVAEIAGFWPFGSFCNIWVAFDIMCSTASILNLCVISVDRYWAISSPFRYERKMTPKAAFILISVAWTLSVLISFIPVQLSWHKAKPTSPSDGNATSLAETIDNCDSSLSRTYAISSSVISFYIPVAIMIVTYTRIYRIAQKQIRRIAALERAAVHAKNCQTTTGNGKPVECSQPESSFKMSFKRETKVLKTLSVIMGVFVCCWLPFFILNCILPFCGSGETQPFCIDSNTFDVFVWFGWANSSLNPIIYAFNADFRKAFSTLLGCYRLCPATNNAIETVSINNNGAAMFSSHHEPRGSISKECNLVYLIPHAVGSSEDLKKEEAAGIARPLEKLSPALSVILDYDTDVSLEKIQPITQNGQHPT
T10 sequence (P35372 whole entry): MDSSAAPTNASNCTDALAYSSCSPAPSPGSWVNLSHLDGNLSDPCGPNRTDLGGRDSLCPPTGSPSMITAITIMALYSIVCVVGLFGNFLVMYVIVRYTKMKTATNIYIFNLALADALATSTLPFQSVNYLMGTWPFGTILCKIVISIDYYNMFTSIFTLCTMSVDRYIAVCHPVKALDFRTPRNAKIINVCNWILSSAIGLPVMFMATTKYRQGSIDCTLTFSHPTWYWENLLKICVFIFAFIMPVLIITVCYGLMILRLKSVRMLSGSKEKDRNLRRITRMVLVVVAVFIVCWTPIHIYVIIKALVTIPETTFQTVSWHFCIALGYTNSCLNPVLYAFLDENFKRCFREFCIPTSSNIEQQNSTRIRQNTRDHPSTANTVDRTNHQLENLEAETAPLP
T29 sequence (P41595 whole entry): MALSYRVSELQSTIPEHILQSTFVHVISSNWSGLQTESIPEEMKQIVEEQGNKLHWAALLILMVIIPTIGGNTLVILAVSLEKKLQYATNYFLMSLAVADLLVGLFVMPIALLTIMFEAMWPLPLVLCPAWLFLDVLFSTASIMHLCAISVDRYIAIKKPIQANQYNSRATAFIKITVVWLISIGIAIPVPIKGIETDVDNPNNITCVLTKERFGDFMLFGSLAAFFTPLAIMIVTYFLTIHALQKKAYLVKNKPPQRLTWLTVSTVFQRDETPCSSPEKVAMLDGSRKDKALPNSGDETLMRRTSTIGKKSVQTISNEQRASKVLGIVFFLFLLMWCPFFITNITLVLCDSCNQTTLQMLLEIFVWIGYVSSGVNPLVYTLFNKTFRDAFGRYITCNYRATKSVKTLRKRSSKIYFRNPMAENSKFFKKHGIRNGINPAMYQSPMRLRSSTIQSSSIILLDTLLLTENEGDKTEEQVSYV

CC(C)(C)N1CCN(Cc2cc3nc(-c4cncc5[nH]ccc45)cc(N4CCOCC4)n3n2)CC1 [CPL302-253]
% Response ADRB1 Agonist (ADRB1; Agonist mode): 0.5%
% Response ADRB1 Antagonist (ADRB1; Antagonist mode): 26.6%
% Response MAOA Inhibitor (MAOA): 8.5%
% Response SERT Blocker (SERT): 21.5%
% Response HRH2 Agonist (HRH2; Agonist mode): 0.6%
% Response HRH2 Antagonist (HRH2; Antagonist mode): 4.2%
% Response ROCK1 Inhibitor (ROCK1): 10.3%
% Response HTR3A Blocker (HTR3A; Blocker mode): 19.5%
% Response HTR3A Opener (HTR3A; Opener mode): -0.8%
% Response ADRA1A Agonist (ADRA1A; Agonist mode): -22.5%
% Response ADRA1A Antagonist (ADRA1A; Antagonist mode): -2.8%
% Response EDNRA Agonist (EDNRA; Agonist mode): -3.3%
% Response EDNRA Antagonist (EDNRA; Antagonist mode): -4.8%
% Response ADRA2A Agonist (ADRA2A; Agonist mode): 0.4%
% Response ADRA2A Antagonist (ADRA2A; Antagonist mode): -0.7%
% Response OPRM1 Agonist (OPRM1; Agonist mode): -9.0%
% Response OPRM1 Antagonist (OPRM1; Antagonist mode): 0.2%
% Response INSR Inhibitor (INSR): -6.5%
% Response CHRM2 Agonist (CHRM2; Agonist mode): 8.2%
% Response CHRM2 Antagonist (CHRM2; Antagonist mode): 35.2%
% Response CNR1 Agonist (CNR1; Agonist mode): -9.2%
% Response CNR1 Antagonist (CNR1; Antagonist mode): -1.3%
% Response OPRK1 Agonist (OPRK1; Agonist mode): -11.0%
% Response OPRK1 Antagonist (OPRK1; Antagonist mode): 0.3%
% Response PDE4D2 Inhibitor (PDE4D2): 2.0%
% Response HTR1B Agonist (HTR1B; Agonist mode): 8.0%
% Response HTR1B Antagonist (HTR1B; Antagonist mode): 0.1%
% Response HTR1A Agonist (HTR1A; Agonist mode): 5.6%
% Response HTR1A Antagonist (HTR1A; Antagonist mode): -4.8%
% Response OPRD1 Agonist (OPRD1; Agonist mode): -6.4%
% Response OPRD1 Antagonist (OPRD1; Antagonist mode): 0.4%
% Response LCK Inhibitor (LCK): 16.3%
% Response GABAA Blocker (GABAA; Blocker mode): 1.4%
% Response GABAA Opener (GABAA; Opener mode): -2.3%
% Response DRD1 Agonist (DRD1; Agonist mode): 1.1%
% Response DRD1 Antagonist (DRD1; Antagonist mode): 9.3%
% Response ADORA2A Agonist (ADORA2A; Agonist mode): -0.8%
% Response ADORA2A Antagonist (ADORA2A; Antagonist mode): 11.7%
% Response CCKAR Agonist (CCKAR; Agonist mode): -2.8%
% Response CCKAR Antagonist (CCKAR; Antagonist mode): -2.4%
% Response COX1 Inhibitor (COX1): 4.7%
% Response NAV1.5 Blocker (NAV1.5): 9.7%
% Response NET Blocker (NET): 8.5%
% Response CNR2 Agonist (CNR2; Agonist mode): 16.4%
% Response CNR2 Antagonist (CNR2; Antagonist mode): 1.1%
% Response ADRB2 Agonist (ADRB2; Agonist mode): 0.5%
% Response ADRB2 Antagonist (ADRB2; Antagonist mode): 17.7%
% Response COX2 Inhibitor (COX2): 11.9%
% Response HTR2B Agonist (HTR2B; Agonist mode): 1.5%
% Response HTR2B Antagonist (HTR2B; Antagonist mode): 12.6%
% Response AVPR1A Agonist (AVPR1A; Agonist mode): -3.2%
% Response AVPR1A Antagonist (AVPR1A; Antagonist mode): -5.2%
% Response AChE Inhibitor (AChE): 27.8%
% Response AR Agonist (AR; Agonist mode): -0.7%
% Response AR Antagonist (AR; Antagonist mode): 8.5%
% Response CAV1.2 Blocker (CAV1.2): -1.1%
% Response CHRM1 Agonist (CHRM1; Agonist mode): 1.2%
% Response CHRM1 Antagonist (CHRM1; Antagonist mode): 48.1%
% Response CHRM3 Agonist (CHRM3; Agonist mode): 1.2%
% Response CHRM3 Antagonist (CHRM3; Antagonist mode): 12.6%
% Response HTR2A Agonist (HTR2A; Agonist mode): -1.5%
% Response HTR2A Antagonist (HTR2A; Antagonist mode): 11.5%
% Response PDE3A Inhibitor (PDE3A): -8.1%
